The source of these data is US3997518A, “2-Alkyl-4-carboxyalkyl-5-(3,3'-dimethyltriazeno)-imidazoles” (Beecham Group Limited, priority 1970, dated 1976).

Structures are written as SMILES. ≈ marks a conversion by molar mass, not a printed value.

Series [1] deals with R1 lymphoma. Kind of series: Activity against R1 lymphoma, increase in survival time (Table A). Particulars: Mus musculus, ip, read-out: Medium % increase in survival time; for ILS at 33 mg/kg: 33 mg/kg i.p. daily day 3 to day 7; for ILS at 128 mg/kg: 128 mg/kg i.p. daily day 3 to day 7; for ILS at 64 mg/kg: 64 mg/kg i.p. daily day 3 to day 7; for ILS at 32 mg/kg: 32 mg/kg i.p. daily day 3 to day 7. In kind it is in vivo, mice. On the procedure: (§1) The R1 lymphoma is normally sensitive to anti-metabolites. Typically mice having a transplant of 1.5 × 10^6 tumour cells die from the metastisizing tumour on day 9, 10 or 11 after transplant.
(§2) The compounds illustrated below were dosed by the intra peritoneal route in a vehicle of 10% acetone in arachas oil daily from day 3 to day 7 after tumour transplant. The increase in survival time over control was measured.
(§3) The dose reported is that dose which gave the maximum increase in survival time. Lower doses gave less activity and higher doses are toxic.
(§4) The results are split into two sections (in Table A and Table B) because two slightly different strains of R1 lymphoma were used.

The subject of series [2] is Friend leukaemia virus. Kind of series: Friend Leukaemia, inhibition of splenomegally. In kind it is in vivo, mice. Particulars: sub-cutaneously 250 mg/kg/day on day -1, +1, +2 and +3 with respect to infection. The source says: Activity of these compounds has also been shown in Friend Leukaemia. Friend leukaemia virus is a prolonged infection in mice produced splenomegally.

The nature of series [3]: Dose at which 50% of the animals were killed (LD50). The arrangement: species or system mice. Particulars: mouse, in vivo, ip; i.p. dosing × 5. The source says:
(§5) The breadth of antitumour spectrum of the compounds of the invention in mice is illustrated by their activity in the ADJ/PC6 plasma cell tumour. This is a solid tumour sensitive to most alkylating agents. Good activity is rarely seen against this tumour and the R1 lymphoma.

In series [4] the test system is PC 6 tumour. Nature of the series: PC 6 tumour screen. In kind it is in vivo, mice.
From the text: as §5
The test of example 91 was repeated using the PC 6 tumour screen.

For series [5], the system named is Candida albicans. Nature of the series: Antifungal activity, minimum inhibitory concentration. In kind it is cell-based. The source says:
(§6) Antifungal activity has been found in compounds of this invention. Thus 4-carboxyethyl-5-(3,3-dimethyltriazeno)-2-phenylimidazole has the following minimum inhibitory concentrations.

For series [6], the system named is Candida neoformans. The description is as above. In kind it is cell-based.
From the text: as §6

Series [7] concerns Trychopyton mentagrophytes. Described as above. In kind it is cell-based.
From the text: as §6

The subject of series [8] is Staphylococus aureus. Kind of series: Antibacterial activity, MIC. In kind it is cell-based. Particulars: DST agar + 5% lysed horse blood. The source says:
(§7) Compounds of this invention have shown antibacterial activity. Thus the minimum inhibitory concentration (M.I.C.) of 4-carboxyethyl-5-(3,3-dimethyltriazeno)-2-phenylimidazole and the corresponding 2-methylimidazole in DST agar + 5% lysed horse blood are illustrated against the following bacteria.

Series [9] concerns Streptococus heamolyticus. Kind of series: Antibacterial activity, MIC. In kind it is cell-based. The settings on record: DST agar + 5% lysed horse blood.
From the text: as §7

The subject of series [10] is ADJ/PC6 plasma cell tumour. Nature of the series: ADJ/PC6 plasma cell tumour, inhibition of tumour weight. In kind it is in vivo, mice. Particulars: i.p. dosing × 5; for ED90: Mus musculus, ADJ/PC6, ip, read-out: ID90 (the source's name); for Therapeutic Index: LD50 compared with ID90.
From the text: as §5

The test system of series [11] is R1 lymphoma. Kind of series: Activity against R1 lymphoma, increase in survival time (Table B, slightly different strain). In kind it is in vivo, mice. Particulars: for ILS at 128 mg/kg: 128 mg/kg i.p. daily day 3 to day 7. On the procedure: as §1, §2, §3, §4
Series [12] concerns Pseudomonas aeroginosa. Kind of series: Antibacterial activity, MIC. In kind it is cell-based. The settings on record: DST agar + 5% lysed horse blood.
From the text: as §7

Series [13] has as its system E. Coli. Kind of series: Antibacterial activity, MIC. In kind it is cell-based. Particulars: Escherichia coli; DST agar + 5% lysed horse blood.
From the text: as §7

Series [14] deals with Proteus mirabilis. Nature of the series: Antibacterial activity, MIC. Particulars: DST agar + 5% lysed horse blood. In kind it is cell-based.
From the text: as §7

[15] abbreviates: Table A strain, dose of maximum increase.
[16] abbreviates: dose at which 90% inhibition of tumour weight occurs.
Where [17] appears, read: Mus musculus, ip, Table B strain, dose of maximum increase, read-out: Medium % increase in survival time.
[18] abbreviates: Mus musculus, ip, Table B strain, 32 mg/kg i.p. daily day 3 to day 7, dose of maximum increase, read-out: Medium % increase in survival time.

With `CCOC(=O)c1nc(-c2ccsc2)[nH]c1N=NN(C)C` [4-Carboxyethyl-5-(3,3-dimethyltriazeno)-2-(3-thienyl) imidazole], the ILS at 33 mg/kg in series [1] (setting [15]) worked out at 200%.

As for `CN(C)N=Nc1[nH]c(-c2cccs2)nc1C(N)=O` [4-Carboxamido-5-(3,3-dimethyltriazeno)-2-(2-thienyl)imidazole], the ILS at 128 mg/kg in series [1] (setting [15]) was 50%.

For the compound `CCOC(=O)c1nc(COc2ccccc2)[nH]c1N=NN(C)C` [4-Carbethoxy-5-(3,3-dimethyltriazeno)-2-phenoxymethyl imidazole], the ILS at 64 mg/kg in [1] (setting [15]) came to 85%.

Take `CCOC(=O)c1nc(Cc2ccccc2)[nH]c1N=NN(C)C` [4-Carbethoxy-5-(3,3-di-methyl-triazeno)-2-benzyl imidazole]: the ILS at 64 mg/kg in series [1] (setting [15]) is 200%.

For `CCOC(=O)c1nc(-c2ccccc2F)[nH]c1N=NN(C)C` [4-Carboxyethyl-5-(3,3-dimethyltriazeno)-2-(2-fluorophenyl) imidazole], the ILS at 10 mg/kg in [1] (Table A strain, 10 mg/kg i.p. daily day 3 to day 7, dose of maximum increase) amounted to 100%.

Regarding `CCOC(=O)c1nc(-c2ccccc2)[nH]c1N=NN(C)C` [4-Carbethoxy-5-(3,3-dimethyl-triazeno)-2-phenyl imidazole], in series [2], the “inhibition of the splenomegally” value is reported as “complete inhibition of the splenomegally”. In addition, the LD50 in series [3] is 310 mg/kg. In addition, the “Therapeutic Index” value is on record as 27 in series [4] (i.p. dosing), 11 in series [4] (oral dosing) and 88 in series [10]. Besides, the MIC was 10 µg/mL (≈ 34.8 µM) in [5]; 10 to 50 µg/mL (≈ 34.8 to 174 µM) in series [6]; 10 µg/mL (≈ 34.8 µM) in series [7]; 10 µg/mL in series [8]; 1 µg/mL in series [9]. The ILS at 32 mg/kg in series [1] (setting [15]) is 300%. The ED90 in series [10] (setting [16]) was 3.5 mg/kg. Besides, the ILS at 33 mg/kg in series [11] (Mus musculus, ip, Table B strain, 33 mg/kg i.p. daily day 3 to day 7, dose of maximum increase, read-out: Medium % increase in survival time) turned out to be 65%.

In the case of `CCOC(=O)c1nc(C)n(C)c1N=NN(C)C` [4-Carbethoxy-5-(3,3-dimethyltriazeno-1-2 dimethylimidazole], the “Medium % increase in survival time” value in series [11] (Table B strain, 32 mg/kg i.p. daily day 3 to day 7, dose of maximum increase) is listed as 65%.

In turn, `CCOC(=O)c1nc(-c2ccc(F)cc2)[nH]c1N=NN(C)C` [4-Carbethoxy-5-(3,3-dimethyltriazeno)-2-(p-fluorophenyl) imidazole] came in with an LD50 in [3] of 200 mg/kg. In series [10] (setting [16]), the ED90 was 20 mg/kg. The “Therapeutic Index” value in [10] is listed as 10.

For `CCOC(=O)c1nc(-c2ccc3ccccc3c2)[nH]c1N=NN(C)C` [4-Carboxyethyl-5-(3,3-dimethyltriazeno)-2-(2-naphthyl) imidazole], the ILS at 128 mg/kg in series [1] (setting [15]) worked out at 170%.

Regarding `Cc1nc(C(N)=O)c(N=NN(C)C)[nH]1` [4-Carboxamido-5-(3,3-dimethyltriazeno)-2-methyl imidazole], the ILS at 128 mg/kg in series [11] (setting [17]) stood at 60%.

On to `CCOC(=O)c1nc(CC)[nH]c1N=NN(C)C` [4-Carbethoxy-5-(3,3-dimethyltriazeno)-2-ethyl imidazole], for which the ILS at 32 mg/kg in series [11] (setting [18]) came out at 70%.

For `CCOC(=O)c1nc(S)[nH]c1N=NN(C)C` [4-Carbethoxy-5-(3,3-dimethyltriazeno)-2-mercapto imidazole], in [11] (setting [17]), the ILS at 128 mg/kg is 140%.

Regarding `CCOC(=O)c1nc(-c2cccc(C)c2)[nH]c1N=NN(C)C` [4-Carboxyethyl-5-(3,3-dimethyltriazeno)-2-(3-methyl-phenyl) imidazole], in series [1] (setting [15]), the ILS at 128 mg/kg was 150%.

Take `CCOC(=O)c1nc(-c2ccc(OC)c(OC)c2)[nH]c1N=NN(C)C` [4-Carboxyethyl-5-(3,3-dimethyltriazeno)-2-(3,4-dimethoxy-phenyl) imidazole]: in [1] (setting [15]), the ILS at 33 mg/kg was 200%.

For the compound `COC(=O)c1nc(S)[nH]c1N=NN(C)C` [4-Carbmethoxy-5-(3,3-dimethyltriazeno)-2-mercapto imidazole], in series [11] (setting [18]), the ILS at 32 mg/kg is 90%.

`CCOC(=O)Cc1nc(C(=O)OCC)c(N=NN(C)C)[nH]1` [4-Carbethoxy-5-(3,3-dimethyltriazeno)-2-carbethoxymethyl imidazole]: the ILS at 64 mg/kg in series [1] (setting [15]) is 400%.

Take `CCCc1nc(C(=O)OCC)c(N=NN(C)C)[nH]1` [4-Carbethoxy-5-(3,3-dimethyltriazeno)-2-n propyl imidazole]: the ILS at 32 mg/kg in series [11] (setting [18]) amounted to 130%.

Regarding `CCOC(=O)c1nc(N(C)C)[nH]c1N=NN(C)C` [4-Carbethoxy-5-(3,3-dimethyltriazeno)-2-dimethylamino imidazole], the ILS at 16 mg/kg in series [11] (Mus musculus, ip, Table B strain, 16 mg/kg i.p. daily day 3 to day 7, dose of maximum increase, read-out: Medium % increase in survival time) turned out to be 45%.

`CCOC(=O)c1nc(COc2ccc(OC)cc2)[nH]c1N=NN(C)C` [4-Carbethoxy-5-(3,3-dimethyltriazeno)-2-p-methoxy-phenoxymethylimidazole]: the ILS at 64 mg/kg in series [1] (setting [15]) was greater than 150%.

On to `COC(=O)c1nc(-c2ccccc2)[nH]c1N=NN(C)C`, for which the ILS at 16 mg/kg in series [1] (Table A strain, 16 mg/kg i.p. daily day 3 to day 7, dose of maximum increase) amounted to 400%.

On to `CCOC(=O)c1nc(C)[nH]c1N=NN(C)C` [4-Carbethoxy-5-(3,3-dimethyltriazeno)-2-methylimidazole], for which the “Therapeutic Index” value in [4] (i.p. dosing) came out at 47; in series [4] (oral dosing), 40. The MIC in series [12] is 62 µg/mL; in series [8] it was 7.5 µg/mL; in series [13], 15 µg/mL; in [14] it was 15 µg/mL. In addition, in series [11] (setting [18]), the ILS at 32 mg/kg is 90%.

In the case of `CCOC(=O)c1nc(C2CCCCC2)[nH]c1N=NN(C)C` [4-Carbethoxy-5-(3,3-dimethyltriazeno)-2-cyclohexyl imidazole], the ILS at 21 mg/kg in series [11] (Mus musculus, ip, Table B strain, 21 mg/kg i.p. daily day 3 to day 7, dose of maximum increase, read-out: Medium % increase in survival time) stood at 85%.

Regarding `CN(Cc1cnc2nc(N)nc(N)c2n1)c1ccc(C(=O)N[C@@H](CCC(=O)O)C(=O)O)cc1` [Methotrexate, 4-amino-10-methyl folic acid, reference compound], the ILS at 2 mg/kg in series [1] stood at 100%; in [11] (Mus musculus, ip, read-out: Medium % increase in survival time), 60%. Moreover, the ID90 entry in series [10] (setting [16]) is given as “Inactive”.

As to `CCOC(=O)c1nc(-c2ccc(Cl)cc2)[nH]c1N=NN(C)Cc1ccccc1` [4-Carboxyethyl-5-(3-methyl-3-benzyltriazeno)-2-(4-chlorophenyl)imidazole], in [1] (Table A strain, 100 mg/kg i.p. daily day 3 to day 7, dose of maximum increase), the ILS at 100 mg/kg came out at 40%.

Regarding `CN(C)N=Nc1[nH]c(-c2ccccc2)nc1C(N)=O` [4-Carboxamido-5-(3,3-dimethyltriazeno)-2-phenylimidazole], in series [3], the LD50 came out at 240 mg/kg. Also, in [1] (Table A strain, 50 mg/kg i.p. daily day 3 to day 7, dose of maximum increase), the ILS at 50 mg/kg is 80%. Also, the ED90 in [10] (setting [16]) came out at 16 mg/kg. Further, the “Therapeutic Index” value in series [10] amounted to 15.

`CCOC(=O)c1nc(-c2ccc(OC)cc2)[nH]c1N=NN(C)C` [4-Carboxyethyl-5-(3,3-dimethyltriazeno)-2-(4-methoxyphenyl) imidazole]: the ILS at 33 mg/kg in series [1] (setting [15]) worked out at 50%.

Turning to `CCOC(=O)c1nc(-c2cccnc2)[nH]c1N=NN(C)C` [4-Carbethoxy-5-(3,3-dimethyltriazeno)-2-(3-pyridyl)imidazole], in series [1] (setting [15]), the ILS at 32 mg/kg stood at 170%.

By LD50 is commonly meant the dose expected to kill half of the subjects tested. A low value points to a more toxic substance. In general, MIC refers to the smallest concentration in the dilution series that meets the test's criterion for growth inhibition.
